Structures can show the parent of a compound that is named as a salt.

For the first test, the target named is T1, Recombinant NAMPT protein (Homo sapiens, UniProt P43490).
T1 construct: purchased BPS bioscience # 7176-1
T1 sequence (P43490 whole entry): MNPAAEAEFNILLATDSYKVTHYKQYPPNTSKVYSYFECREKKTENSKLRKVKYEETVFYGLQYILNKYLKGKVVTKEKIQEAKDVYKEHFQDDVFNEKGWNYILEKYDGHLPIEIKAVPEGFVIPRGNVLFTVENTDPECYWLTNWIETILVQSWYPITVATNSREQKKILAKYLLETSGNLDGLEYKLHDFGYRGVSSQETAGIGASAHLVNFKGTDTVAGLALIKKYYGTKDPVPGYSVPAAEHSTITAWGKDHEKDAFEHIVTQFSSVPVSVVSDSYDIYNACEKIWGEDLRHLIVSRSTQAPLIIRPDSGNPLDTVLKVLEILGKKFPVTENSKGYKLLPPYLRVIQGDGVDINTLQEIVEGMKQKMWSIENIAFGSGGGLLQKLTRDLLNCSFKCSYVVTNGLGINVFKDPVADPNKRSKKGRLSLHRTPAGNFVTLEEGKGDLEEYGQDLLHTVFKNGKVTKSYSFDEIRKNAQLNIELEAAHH
Kind of test: NAMPT enzyme inhibition assay (BPS bioscience NAMPT Inhibitor Screening Assay Kit, fluorescence). Particulars: 30 min pre-incubation, 2 h at 30°C, compound 1000 nM to 3 nM, n=2. Type of test: biochemical. The protocol:
The NAMPT enzyme activity inhibition ability of the compound of the present invention was evaluated using the NAMPT Inhibitor Screening Assay Kit (# 7176-1) from BPS bioscience. Recombinant NAMPT protein was added to each well of a black 96-well plate, and dilution buffer was added to a blank well instead of NAMPT protein. A 5 x concentrated compound solution was added and pre-incubated at room temperature (approximately 22°C) for 30 minutes before the start of the reaction so that the compound and protein might bind before the enzyme reaction. At this time, the concentration of NAMPT protein was adjusted and used according to the enzyme activity of each protein lot within the final concentration range of 4-10 ng/µl, and the test compound was serially diluted at a ratio of 1:3 from 1000 nM to 3 nM, and experiments were conducted with n=2 for about seven concentrations. A 2 x concentrated test buffer containing ATP (final concentration of 20 µM), nicotinamide (final concentration of 20 µM), phosphoribosyl pyrophosphate (PRPP, final concentration of 40 µM), and ethanol (final concentration of 1.5%) was added, and the plate was incubated at 30°C for two hours, after which the fluorescence of a resulting reaction product was measured with excitation of 340 nm and emission of 460 nm. The NAMPT enzyme activity (%) was calculated by subtracting the measurement value of the blank well without NAMPT protein from the measurement value of all wells, and then taking the measurement value of the control well without the compound as 100%.
With `Cn1ccc(CS(=O)(=O)c2ccc(C(=O)NCc3ccn4ccnc4c3)cc2C#Cc2ccc(C(=O)NCCN3CCNCC3)cc2)n1` [compound 193, N-(imidazo[1,2-a]pyridin-7-ylmethyl)-4-(((1-methyl-1H-pyrazol-3-yl)methyl)sulfonyl)-3-((4-((2-(piperazin-1-yl)ethyl)carbamoyl)phenyl)ethynyl)benzamide], the concentration for half-maximal inhibition (IC50) is not below 1000 nM.
Same read-out and setting: the same measure for `Cn1ccc(CS(=O)(=O)c2ccc(C(=O)NCc3ccn4ccnc4c3)cc2C#Cc2cccc(CN)c2)n1` [compound 232, 3-((3-(aminomethyl)phenyl)ethynyl)-N-(imidazo[1,2-a]pyridin-7-ylmethyl)-4-(((1-methyl-1H-pyrazol-3-yl)methyl)sulfonyl)benzamide]: less than 500 nM; for `Cn1ccc(CS(=O)(=O)c2ccc(C(=O)NCc3ccn4ccnc4c3)cc2C#Cc2ccc(N)nc2)n1` [compound 243, 3-((6-aminopyridin-3-yl)ethynyl)-N-(imidazo[1,2-a]pyridin-7-ylmethyl)-4-(((1-methyl-1H-pyrazol-3-yl)methyl)sulfonyl)benzamide]: less than 500 nM; for `O=C(NCc1ccn2ccnc2c1)c1ccc(S(=O)(=O)Cc2ccn(C3CCNCC3)n2)c(C#Cc2ccc(F)cc2)c1` [compound 122, 3-((4-fluorophenyl)ethynyl)-N-(imidazo[1,2-a]pyridin-7-ylmethyl)-4-(((1-(piperidin-4-yl)-1H-pyrazol-3-yl)methyl)sulfonyl)benzamide]: not below 1000 nM.
As to `Cn1ccc(CS(=O)(=O)c2ccc(C(=O)NCCc3ccc(N)nc3)cc2C#Cc2ccc(F)cc2)n1` [compound 8, N-(2-(6-aminopyridin-3-yl)ethyl)-3-((4-fluorophenyl)ethynyl)-4-(((1-methyl-1H-pyrazol-3-yl)methyl)sulfonyl)benzamide], the IC50 was not below 1000 nM.
On the same count and under the same terms, the same measure for `Cn1ccc(CS(=O)(=O)c2ccc(C(=O)NCc3ccn4ccnc4c3)cc2C#Cc2ccc3c(c2)CCNC3)n1` [compound 231, N-(imidazo[1,2-a]pyridin-7-ylmethyl)-4-(((1-methyl-1H-pyrazol-3-yl)methyl)sulfonyl)-3-((1,2,3,4-tetrahydroisoquinolin-6-yl)ethynyl)benzamide]: less than 500 nM; for `CN(C)c1ccc(C#Cc2cc(C(=O)NCCCc3cn[nH]c3)ccc2S(=O)(=O)Cc2ccn(C)n2)cc1` [compound 244, N-(3-(1H-pyrazol-4-yl)propyl)-3-((4-(dimethylamino)phenyl)ethynyl)-4-(((1-methyl-1H-pyrazol-3-yl)methyl)sulfonyl)benzamide]: not below 1000 nM.
Take `CNS(=O)(=O)c1ccc(C(=O)NCCCc2cn[nH]c2)cc1C#Cc1ccc(F)cc1` [compound 6, N-(3-(1H-pyrazol-4-yl)propyl)-3-((4-fluorophenyl)ethynyl)-4-(N-methylsulfamoyl)benzamide]: the IC50 is not below 1000 nM.
`Cn1ccc(CS(=O)(=O)c2ccc(C(=O)NCCCc3cn[nH]c3)cc2C#Cc2ccncc2)n1` [compound 237, N-(3-(1H-pyrazol-4-yl)propyl)-4-(((1-methyl-1H-pyrazol-3-yl)methyl)sulfonyl)-3-(pyridin-4-ylethynyl)benzamide]: the 50% inhibitory concentration (IC50) was less than 500 nM.
Same read-out and setting: the same measure for `Cn1ccc(CS(=O)(=O)c2ccc(C(=O)NCc3ccc4nccn4c3)cc2C#Cc2ccc(N)cc2)n1` [compound 240, 3-((4-aminophenyl)ethynyl)-N-(imidazo[1,2-a]pyridin-6-ylmethyl)-4-(((1-methyl-1H-pyrazol-3-yl)methyl)sulfonyl)benzamide]: less than 500 nM.
For `Cn1ccc(CS(=O)(=O)c2ccc(C(=O)NCCCc3cn[nH]c3)cc2C#Cc2ccc(OC(F)(F)F)cc2)n1` [compound 236, N-(3-(1H-pyrazol-4-yl)propyl)-4-(((1-methyl-1H-pyrazol-3-yl)methyl)sulfonyl)-3-((4-(trifluoromethoxy)phenyl)ethynyl)benzamide], the half-inhibitory concentration (IC50) is not below 1000 nM.
`O=C(NCCCc1cn[nH]c1)c1ccc(S(=O)(=O)Cc2cccc(C(F)(F)F)c2)c(C#Cc2ccc(F)cc2)c1` [compound 9, N-(3-(1H-pyrazol-4-yl)propyl)-3-((4-fluorophenyl)ethynyl)-4-((3-(trifluoromethyl)benzyl)sulfonyl)benzamide]: the IC50 fell in the range of 500 to 1000 nM.
`Cn1ccc(CS(=O)(=O)c2ccc(C(=O)NCc3ccn4ccnc4c3)cc2C#Cc2ccc(C(=O)NCCN3CCCCC3)cc2)n1` [compound 242, N-(imidazo[1,2-a]pyridin-7-ylmethyl)-4-(((1-methyl-1H-pyrazol-3-yl)methyl)sulfonyl)-3-((4-((2-(piperidin-1-yl)ethyl)carbamoyl)phenyl)ethynyl)benzamide]: the half-inhibitory concentration (IC50) lay within 500 to 1000 nM.
The same measure, in the same setting: next, `O=C(NCCCc1cn[nH]c1)c1ccc(S(=O)(=O)Cc2ccn(-c3ccc(C(F)(F)F)cc3)n2)c(C#Cc2ccc(F)cc2)c1` [compound 4, N-(3-(1H-pyrazol-4-yl)propyl)-3-((4-fluorophenyl)ethynyl)-4-(((1-(4-(trifluoromethyl)phenyl)-1H-pyrazol-3-yl)methyl)sulfonyl)benzamide]: 500 to 1000 nM.
The same measure, in the same setting: next, `Cn1ccc(CS(=O)(=O)c2ccc(C(=O)NCc3ccn4ccnc4c3)cc2C#Cc2ccc(N)c(F)c2)n1` [compound 241, 3-((4-amino-3-fluorophenyl)ethynyl)-N-(imidazo[1,2-a]pyridin-7-ylmethyl)-4-(((1-methyl-1H-pyrazol-3-yl)methyl)sulfonyl)benzamide]: less than 500 nM.
`Nc1ccc(-n2ccc(CS(=O)(=O)c3ccc(C(=O)NCc4ccn5ccnc5c4)cc3C#Cc3ccc(F)cc3)n2)cc1` [compound 233, 4-(((1-(4-aminophenyl)-1H-pyrazol-3-yl)methyl)sulfonyl)-3-((4-fluorophenyl)ethynyl)-N-(imidazo[1,2-a]pyridin-7-ylmethyl)benzamide]: the IC50 is less than 500 nM.
On to `Cn1ccc(CNS(=O)(=O)c2ccc(C(=O)NCc3ccn4ccnc4c3)cc2C#Cc2ccc(F)cc2)n1` [compound 115, 3-((4-fluorophenyl)ethynyl)-N-(imidazo[1,2-a]pyridin-7-ylmethyl)-4-(N-((1-methyl-1H-pyrazol-3-yl)methyl)sulfamoyl)benzamide], for which the half-maximal inhibitory concentration (IC50) was less than 500 nM.
As for `Cn1ccc(CS(=O)(=O)c2ccc(C(=O)NCCc3ccc([N+](=O)[O-])nc3)cc2C#Cc2ccc(F)cc2)n1` [compound 7, 3-((4-fluorophenyl)ethynyl)-4-(((1-methyl-1H-pyrazol-3-yl)methyl)sulfonyl)-N-(2-(6-nitropyridin-3-yl)ethyl)benzamide], the concentration for half-maximal inhibition (IC50) is not below 1000 nM.
`Nc1ccc(CS(=O)(=O)c2ccc(C(=O)NCc3ccn4ccnc4c3)cc2C#Cc2ccc(F)cc2)cc1` [compound 148, 4-((4-aminobenzyl)sulfonyl)-3-((4-fluorophenyl)ethynyl)-N-(imidazo[1,2-a]pyridin-7-ylmethyl)benzamide]: the IC50 is less than 500 nM.
`Cn1ccc(CS(=O)(=O)c2ccc(C(=O)NCCCc3cn[nH]c3)cc2C#Cc2ccc(C3CCNCC3)cc2)n1` [compound 245, N-(3-(1H-pyrazol-4-yl)propyl)-4-(((1-methyl-1H-pyrazol-3-yl)methyl)sulfonyl)-3-((4-(piperidin-4-yl)phenyl)ethynyl)benzamide hydrochloride]: the half-inhibitory concentration (IC50) was less than 500 nM.
On the same count and under the same terms, the same measure for `Nc1cccc(CS(=O)(=O)c2ccc(C(=O)NCc3ccn4ccnc4c3)cc2C#Cc2ccc(F)cc2)c1` [compound 147]: less than 500 nM.
The same measure, in the same setting: the same measure for `Cn1ccc(CS(=O)(=O)c2ccc(C(=O)NCCc3c[nH]c4ccncc34)cc2C#Cc2ccc(F)cc2)n1` [compound 3, N-(2-(1H-pyrrolo[3,2-c]pyridin-3-yl)ethyl)-3-((4-fluorophenyl)ethynyl)-4-(((1-methyl-1H-pyrazol-3-yl)methyl)sulfonyl)benzamide]: less than 500 nM; for `Cc1cccc(CS(=O)(=O)c2ccc(C(=O)NCCCc3cn[nH]c3)cc2C#Cc2ccc(F)cc2)c1C` [compound 5, N-(3-(1H-pyrazol-4-yl)propyl)-4-((2,3-dimethylbenzyl)sulfonyl)-3-((4-fluorophenyl)ethynyl)benzamide]: not below 1000 nM.
Same read-out and setting: the same measure for `COc1cc(C#Cc2cc(C(=O)NCCCc3cn[nH]c3)ccc2S(=O)(=O)Cc2ccn(C)n2)ccc1C` [compound 235, N-(3-(1H-pyrazol-4-yl)propyl)-3-((3-methoxy-4-methylphenyl)ethynyl)-4-(((1-methyl-1H-pyrazol-3-yl)methyl)sulfonyl)benzamide]: less than 500 nM.

For a further test, the system named is HCT116 colorectal cancer cell lines. Briefly: Tumor cytotoxicity assay (MTT). Type of test: cell-based. Particulars: Homo sapiens, HCT-116, HCT116 cells, 72 hours treatment, 0.1 nM to 1000 nM. The protocol: The anticancer efficacy of the compound of the present invention was evaluated using the MTT analysis method in HCT116 colorectal cancer cell lines. The cells were incubated using DMEM medium containing 10% FBS. The cells were distributed in a 96-well plate at a density of 2,500 cells per well, the HCT116 cells were incubated for 24 hours, and then treated with a drug using a serum free DMEM. First, a compound was prepared in 100% dimethyl sulfoxide (DMSO) at a concentration of 0.02 µM to 200 µM, diluted in the culture medium so that the final concentration of DMSO might reach 0.5%, and treated with the drug so that the final concentration of the compound might range from 0.1 nM to 1000 nM. After that, they were further incubated for 72 hours at 37°C and CO2 5% and treated with MTT (Sigma-Aldrich, M2128) to confirm cytotoxicity. Formazan produced from reduction by enzymes in the mitochondria of living cells was measured using Spark® Multimode Microplate Reader TECAN equipment. A cell viability (%) was relatively determined by subtracting a reference 650 nm optical density (O.D.) from 570 nm O.D., in which the 0.5% DMSO-treated control was set as a standard of 100%. […]
`Cn1ccc(CS(=O)(=O)c2ccc(C(=O)NCc3ccn4ccnc4c3)cc2C#Cc2cccc(CN)c2)n1` [compound 232, 3-((3-(aminomethyl)phenyl)ethynyl)-N-(imidazo[1,2-a]pyridin-7-ylmethyl)-4-(((1-methyl-1H-pyrazol-3-yl)methyl)sulfonyl)benzamide] had a CC50 not above 30 nM.
`Cn1ccc(CS(=O)(=O)c2ccc(C(=O)NCc3ccn4ccnc4c3)cc2C#Cc2ccc(N)c(F)c2)n1` [compound 241, 3-((4-amino-3-fluorophenyl)ethynyl)-N-(imidazo[1,2-a]pyridin-7-ylmethyl)-4-(((1-methyl-1H-pyrazol-3-yl)methyl)sulfonyl)benzamide] gave a 50% cytotoxic concentration (CC50) not above 30 nM.
Compound `Nc1ccc(CS(=O)(=O)c2ccc(C(=O)NCc3ccn4ccnc4c3)cc2C#Cc2ccc(F)cc2)cc1` [compound 148, 4-((4-aminobenzyl)sulfonyl)-3-((4-fluorophenyl)ethynyl)-N-(imidazo[1,2-a]pyridin-7-ylmethyl)benzamide] showed a CC50 of 100 to 1000 nM.

The values above are taken from patent publication EP4722208A1, “NOVEL BENZAMIDE DERIVATIVE COMPOUND AND PHARMACEUTICAL COMPOSITION COMPRISING SAME” (Samjin Pharmaceutical Co., Ltd., priority 2023, dated 2024).
